Assays:
[1] = tested on: H3K27m3 methylation in Pfeiffer cells; test: Western Blot of H3K27m3 methylation in Pfeiffer cells; type: cell-based; settings: for IC50: 72 hours treatment, H3K27m3 methylation by Western Blot
Method: Meanwhile, the inventors further conducted Western Blot with Pfeiffer cells (purchased from ATCC, USA) for verification. […] Effect of compounds on H3K27m3 methylation in cells was assessed.

[2] = molecular target: PRC2 protein complex comprising EZH2(Y641F) (Homo sapiens (Human), UniProt Q15910, Y641F); test: EZH2(Y641F) TR-FRET enzymatic activity assay; settings: for activity compared with control compounds in the assay using a TR-FRET kit: versus GSK126 and EPZ6438
Sequence of PRC2 protein complex comprising EZH2(Y641F) (Q15910 whole entry Y641F): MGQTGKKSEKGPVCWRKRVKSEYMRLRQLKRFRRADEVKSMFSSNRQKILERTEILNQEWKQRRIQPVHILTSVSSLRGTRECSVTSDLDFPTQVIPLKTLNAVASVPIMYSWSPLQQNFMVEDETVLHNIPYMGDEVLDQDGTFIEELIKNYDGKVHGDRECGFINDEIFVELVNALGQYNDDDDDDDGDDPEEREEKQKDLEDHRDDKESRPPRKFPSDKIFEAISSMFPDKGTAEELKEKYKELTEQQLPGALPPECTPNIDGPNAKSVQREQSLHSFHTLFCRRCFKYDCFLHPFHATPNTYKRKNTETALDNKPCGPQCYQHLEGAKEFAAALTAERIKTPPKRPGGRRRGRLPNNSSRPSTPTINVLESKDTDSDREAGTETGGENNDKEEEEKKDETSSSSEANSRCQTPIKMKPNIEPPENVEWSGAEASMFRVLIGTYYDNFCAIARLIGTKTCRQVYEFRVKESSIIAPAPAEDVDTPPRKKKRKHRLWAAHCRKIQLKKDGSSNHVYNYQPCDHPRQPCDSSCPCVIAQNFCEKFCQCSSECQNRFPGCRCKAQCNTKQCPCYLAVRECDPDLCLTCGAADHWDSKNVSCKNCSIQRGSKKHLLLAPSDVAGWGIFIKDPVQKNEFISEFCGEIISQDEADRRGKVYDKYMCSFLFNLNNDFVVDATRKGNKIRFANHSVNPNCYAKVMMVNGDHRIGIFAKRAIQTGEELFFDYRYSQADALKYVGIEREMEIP
Sequence of PRC2 protein complex comprising EZH2(Y641F) (O75530 whole entry partner): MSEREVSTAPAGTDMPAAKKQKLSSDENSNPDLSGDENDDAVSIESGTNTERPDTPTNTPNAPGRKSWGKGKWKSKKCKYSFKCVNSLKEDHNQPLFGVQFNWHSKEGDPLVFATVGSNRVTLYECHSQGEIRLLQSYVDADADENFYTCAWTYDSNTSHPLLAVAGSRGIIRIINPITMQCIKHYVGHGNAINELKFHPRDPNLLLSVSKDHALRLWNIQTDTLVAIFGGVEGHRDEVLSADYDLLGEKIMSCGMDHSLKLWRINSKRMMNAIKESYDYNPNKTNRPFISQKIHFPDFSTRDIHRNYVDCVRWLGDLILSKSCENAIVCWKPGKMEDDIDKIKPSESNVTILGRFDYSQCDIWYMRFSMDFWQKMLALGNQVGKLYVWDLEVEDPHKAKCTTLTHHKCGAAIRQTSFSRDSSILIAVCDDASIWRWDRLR
Sequence of PRC2 protein complex comprising EZH2(Y641F) (Q15022 whole entry partner): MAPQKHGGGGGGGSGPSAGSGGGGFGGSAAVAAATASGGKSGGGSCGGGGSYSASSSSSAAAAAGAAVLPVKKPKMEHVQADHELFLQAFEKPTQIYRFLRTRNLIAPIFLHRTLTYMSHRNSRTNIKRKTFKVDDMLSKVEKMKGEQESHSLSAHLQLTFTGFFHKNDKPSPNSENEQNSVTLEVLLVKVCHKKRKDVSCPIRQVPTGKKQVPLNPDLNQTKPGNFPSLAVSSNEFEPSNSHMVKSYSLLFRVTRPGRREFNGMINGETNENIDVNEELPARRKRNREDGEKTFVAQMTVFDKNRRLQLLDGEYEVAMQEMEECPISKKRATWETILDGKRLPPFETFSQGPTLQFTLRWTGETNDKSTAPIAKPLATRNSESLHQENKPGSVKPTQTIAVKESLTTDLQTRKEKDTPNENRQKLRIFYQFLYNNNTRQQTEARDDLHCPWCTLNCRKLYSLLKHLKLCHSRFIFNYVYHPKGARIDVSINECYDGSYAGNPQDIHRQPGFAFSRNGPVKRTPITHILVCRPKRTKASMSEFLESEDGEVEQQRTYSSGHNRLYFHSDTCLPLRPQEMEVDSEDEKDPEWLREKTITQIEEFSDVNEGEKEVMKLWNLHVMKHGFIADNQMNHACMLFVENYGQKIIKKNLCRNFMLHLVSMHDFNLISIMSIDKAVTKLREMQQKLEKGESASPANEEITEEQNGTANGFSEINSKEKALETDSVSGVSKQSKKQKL
Sequence of PRC2 protein complex comprising EZH2(Y641F) (Q09028 whole entry partner): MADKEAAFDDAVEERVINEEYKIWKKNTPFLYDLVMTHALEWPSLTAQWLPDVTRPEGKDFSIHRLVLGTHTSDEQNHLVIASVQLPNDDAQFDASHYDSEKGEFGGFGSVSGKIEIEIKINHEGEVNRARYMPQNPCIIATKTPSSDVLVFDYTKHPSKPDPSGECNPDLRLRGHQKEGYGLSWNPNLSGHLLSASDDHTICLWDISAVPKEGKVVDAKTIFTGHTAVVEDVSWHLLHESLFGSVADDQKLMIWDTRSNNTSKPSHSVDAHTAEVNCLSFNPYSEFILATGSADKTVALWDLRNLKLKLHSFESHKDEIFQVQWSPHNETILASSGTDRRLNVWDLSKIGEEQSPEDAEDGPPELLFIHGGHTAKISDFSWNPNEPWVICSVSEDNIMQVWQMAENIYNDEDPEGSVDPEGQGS
Sequence of PRC2 protein complex comprising EZH2(Y641F) (Q6ZN18 whole entry partner): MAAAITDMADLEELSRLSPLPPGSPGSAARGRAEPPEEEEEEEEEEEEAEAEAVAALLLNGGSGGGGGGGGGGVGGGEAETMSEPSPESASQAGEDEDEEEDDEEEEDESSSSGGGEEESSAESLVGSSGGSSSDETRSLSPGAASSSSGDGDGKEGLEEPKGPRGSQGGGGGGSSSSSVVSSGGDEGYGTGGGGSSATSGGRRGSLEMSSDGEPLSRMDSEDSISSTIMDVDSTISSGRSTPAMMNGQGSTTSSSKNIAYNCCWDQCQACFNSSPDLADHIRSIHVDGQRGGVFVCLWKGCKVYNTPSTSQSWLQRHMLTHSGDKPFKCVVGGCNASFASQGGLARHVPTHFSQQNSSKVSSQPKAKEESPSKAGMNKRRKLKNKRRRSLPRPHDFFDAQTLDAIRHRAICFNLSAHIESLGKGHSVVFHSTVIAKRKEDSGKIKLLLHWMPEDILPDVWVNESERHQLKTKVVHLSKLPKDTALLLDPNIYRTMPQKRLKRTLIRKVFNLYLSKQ
Method: Subsequently 5 μL of the assay antibody, H3K27me3-Eu(K)Ab (purchased from cisbio bioassays, USA, #61 KC3KAE) and 5 μL Streptavidin-XL665 (purchased from cisbio bioassays, USA, #610SAXLA), were added and incubated for 1 hour at room temperature.

EZH2 = EZH2 (Homo sapiens (Human), UniProt Q15910); test: E-cadherin promoter luciferase reporter gene primary screening in 293T cells; type: cell-based; settings: 293T cells treated for 24 hours, Dual-Glo luciferase; for 1 μM relative fluorescence intensity: compound 1 μM; for 10 μM relative fluorescence intensity: compound 10 μM
Sequence of EZH2 (Q15910 whole entry): as the sequence (Q15910 whole entry Y641F) above, with F641Y counted along it
Sequence of EZH2 (O75530 whole entry partner): as the sequence (O75530 whole entry partner) above
Sequence of EZH2 (Q15022 whole entry partner): as the sequence (Q15022 whole entry partner) above
Sequence of EZH2 (Q09028 whole entry partner): as the sequence (Q09028 whole entry partner) above
Description: EZH2 suppresses the expression of downstream E-cadherin, and upon EZH2 suppression, expression of E-cadherin will increase. Based on such principle, a reporter gene expression vector was constructed using luciferase.
The amplified fragments after PCR and the PGL4.1 vector (purchased from TAKARA, Japan) were respectively subjected to enzyme digestion with SacI and BglII (purchased from TAKARA, Japan), and then purified with PCR cleanup kit (Axygen PCR cleanup kit). Subsequently, the purified and enzyme-digested PCR products was ligated to the purified and enzyme-digested PGL4.1 vector using ligase solution I (DNA Ligation Kit Ver.2.1, purchased from TAKARA, Japan), and subjected to transformation. Single clones were then screened out and subjected to sequencing, and the obtained positive plasmid containing promoter fragments of Ecadherin was named E-cadherin RE-PGL4.1.
Meanwhile, a Renilla fluorescent vector was constructed using PCDNA4.1 (purchased from Thermofisher, USA) as the template to amplify the fragment of CMV promoter. After enzymatic digestion of the amplified CMV sequences and pGL4.70 vector (purchased from Promega, USA) with KpnI and XhoI (purchased from Promega, USA), purification was conducted with PCR cleanup kit (Axygen PCR cleanup kit). Then the enzyme-digested PCR product was ligated to the enzyme-digested PGL4.70 vector using ligase solution I (DNA Ligation Kit Ver.2.1, purchased from TAKARA, Japan) and the resultant was subjected to transformation. Subsequently single clones were screened and subjected to sequencing, and the obtained plasmid that contained CMV sequence was named as Plasmid Renilla luciferase-pGL4.70. Said plasmid utilized CMV promoter to achieve high expression of Renilla luciferase, which served as the control fluorescence for the primary screening system.
The cells were firstly added with 20 μL Dual-Glo® Luciferase Assay Reagent, then incubated under room temperature for 10 minutes, and read on microplate reader Spectramax i3 (Molecular Devices, USA) to obtain the data of primary screening, which is shown in Table 1.

| SMILES | IC50 ([1]; Homo sapiens) [µM] | IC50 [2] [nM] | 1 μM relative fluorescence intensity (EZH2) | 10 μM relative fluorescence intensity (EZH2) | further results |
| --- | --- | --- | --- | --- | --- |
| CCN(C(=O)C1CC1)c1cc(-c2ccc(CN3CCOCC3)cc2)cc(C(=O)NCc2c(C)cc(C)[nH]c2=O)c1C [Compound 5, N-((4,6-dimethyl-2-oxo-1,2-dihydropyridin-3-yl)methyl)-5-(N-ethylcyclopropanecarboxamido)-4-methyl-4′-(morpholinomethyl)-[1,1′-diphenyl]-3-carboxamide] | 0.086 |  |  |  |  |
| CCN(C(=O)C1CCCC1)c1cc(-c2ccc(CN3CCN(C(=O)OC(C)(C)C)CC3)cc2)cc(C(=O)NCc2c(C)cc(C)[nH]c2=O)c1C [Compound 24, tert-butyl-4-((3′-(((4,6-dimethyl-2-oxo-1,2-dihydropyridin-3-yl)methyl)carbamoyl)-5′-(N-ethylcyclopentanecarboxamido)-4′-methyl-[1,1′-diphenyl]-4-yl)methyl)piperazin-1-carboxylate] | 0.073 | 80.6 |  |  | activity compared with control compounds in the assay using a TR-FRET kit [2]: superior activity than control compounds GSK126 and EPZ6438 |
| CCN(C(=O)C1CCCC1)c1cc(C#N)cc(C(=O)NCc2c(C)cc(C)[nH]c2=O)c1C [Compound 33, 5-cyano-N-((4,6-dimethyl-2-oxo-1,2-dihydropyridin-3-yl)methyl)-3-(N-ethylcyclopentanecarboxamido)-2-methylbenzamide] | 0.67 |  | 123.27 | 224.69 |  |
| CCCc1cc(C)[nH]c(=O)c1CNC(=O)c1cc(-c2ccnc(N3CCN(CC4CC4)CC3)c2)cc(N(CC)C(=O)C2CCCC2)c1C [Compound 39, 5-(2-(4-(cyclopropylmethyl)piperazin-1-yl)pyridin-4-yl)-3-(N-ethylcyclopentanecarboxamido)-2-methyl-N-((6-methyl-2-oxo-4-propyl-1,2-dihydropyridin-3-yl)methyl)benzamide] | 0.83 |  |  |  |  |
| CCN(C(=O)C1CCCC1)c1cc(-c2ccc(OCCCN3CCOCC3)cc2F)cc(C(=O)NCc2c(C)cc(C)[nH]c2=O)c1C [Compound 44, N-((4,6-dimethyl-2-oxo-1,2-dihydropyridin-3-yl)methyl)-5-(N-ethylcyclopentanecarboxamido)-2′-fluoro-4-methyl-4′-(3-morpholinopropoxy)-[1,1′-diphenyl]-3-carboxamide] |  |  | 181.04 | 217.02 |  |
| CCN(C(=O)C1CCCC1)c1cc(-c2ccc(OCCCN3CCOCC3)cc2C)cc(C(=O)NCc2c(C)cc(C)[nH]c2=O)c1C [Compound 45, N-((4,6-dimethyl-2-oxo-1,2-dihydropyridin-3-yl)methyl)-5-(N-ethylcyclopentanecarboxamido)-2′,4-methyl-4′-(3-morpholinopropoxy)-[1,1′-diphenyl]-3-carboxamide] |  |  | 189.05 | 218.76 |  |
| CCN(C(=O)C1CC2C=CC1C2)c1cc(-c2ccc(CN3CCOCC3)cc2)cc(C(=O)NCc2c(C)cc(C)[nH]c2=O)c1C [Compound 60, (1R,4R)—N-(5-(((4,6-dimethyl-2-oxo-1,2-dihydropyridin-3-yl)methyl)carbamoyl-4-methyl-4′-(morpholinomethyl)-[1,1′-diphenyl]-3-yl)-N-ethylbicyclo[2.2.1]hept-5-en-2-carboxamide] |  |  | 143 | 171 | 3 μM relative fluorescence intensity (EZH2; compound 3 μM): 140 |
| CCN(C(=O)C1CCCC1)c1cc(-c2ccc(OCCN3CCOCC3)cc2C)cc(C(=O)NCc2c(C)cc(C)[nH]c2=O)c1C [Compound 63, N-((4,6-dimethyl-2-oxo-1,2-dihydropyridin-3-yl)methyl)-5-(N-ethylcyclopentanecarboxamido)-2′,4-dimethyl-4′-(2-morpholinoethoxyl)-[1,1′-diphenyl]-3-carboxamide] | 0.43 | 103 |  |  | activity compared with control compounds in the assay using a TR-FRET kit [2]: superior activity than control compounds GSK126 and EPZ6438 |
| CCN(C(=O)C1CC1)c1cc(-c2ccc(OCCCN3CCOCC3)cc2C)cc(C(=O)NCc2c(C)cc(C)[nH]c2=O)c1C [Compound 64, N-((4,6-dimethyl-2-oxo-1,2-dihydropyridin-3-yl)methyl)-5-(N-ethylcyclopropanecarboxamido)-2′,4-dimethyl-4′-(3-morpholinopropoxy)-[1,1′-diphenyl]-3-carboxamide] | 0.03 | 103 |  |  | effect compared with control compounds in Western Blot verification on cells ([1]; versus EPZ6438 and GSK126): superior effects than control compounds EPZ6438 and GSK126; activity compared with control compounds in the assay using a TR-FRET kit [2]: superior activity than control compounds GSK126 and EPZ6438 |
| CC[C@H](C)n1cc(C)c2c(C(=O)NCc3c(C)cc(C)[nH]c3=O)cc(-c3ccc(N4CCNCC4)nc3)cc21 [GSK126, reference compound] |  |  |  |  | IC50 [1]: 1.4 µM |

Second part, led by results:

| IC50 ([1]; Homo sapiens) [µM] | IC50 [2] [nM] | 1 μM relative fluorescence intensity (EZH2) | 10 μM relative fluorescence intensity (EZH2) | SMILES | further results |
| --- | --- | --- | --- | --- | --- |
| 0.126 |  |  |  | CCN(C(=O)C1CCCC1)c1cc(-c2ccc(CN3CCOCC3)cc2)cc(C(=O)NCc2c(C)cc(C)[nH]c2=O)c1C [Compound 16, N-((4,6-dimethyl-2-oxo-1,2-dihydropyridin-3-yl)methyl)-5-(N-ethylcyclopentanecarboxamido)-4-methyl-4′-(morpholinomethyl)-[1,1′-diphenyl]-3-carboxamide] |  |
| 2.6 |  | 176.86 | 364.77 | CCN(C(=O)C1CCCC1)c1cc(-c2ccc(N3CCN(C(=O)OC(C)(C)C)CC3)nc2)cc(C(=O)NCc2c(C)cc(C)[nH]c2=O)c1C [Compound 29, tertbutyl-4-(5-(3-(((4,6-dimethyl-2-oxo-1,2-dihydropyridin-3-yl)methyl)carbamoyl)-5-(N-ethylcyclopentanecarboxamido)-4-methylphenyl)pyridin-2-yl)piperazin-1-carboxylate] |  |
| 0.087 | 444 |  |  | CCN(C(=O)C1CCCC1)c1cc(-c2ccc(N3CCNCC3)cc2)cc(C(=O)NCc2c(C)cc(C)[nH]c2=O)c1C [Compound 31, N-((4,6-dimethyl-2-oxo-1,2-dihydropyridin-3-yl)methyl)-5-(N-ethylcyclopentanecarboxamido)-4-methyl-4′-(piperazin-1-yl)-[1,1′-diphenyl]-3-carboxamide] |  |
| 0.95 |  |  |  | CCN(C(=O)C1CCCC1)c1cc(-c2ccc(N3CCNCC3)nc2)cc(C(=O)NCc2c(C)cc(C)[nH]c2=O)c1C [Compound 32, N-((4,6-dimethyl-2-oxo-1,2-dihydropyridin-3-yl)methyl)-3-(N-ethylcyclopentanecarboxamido)-2-methyl-5-(6-(piperazin-1-yl)pyridin-3-yl)-benzamide] |  |
| 0.23 | 515 |  |  | CCN(C(=O)C1CCCC1)c1cc(-c2ccnc(N3CCN(CC4CC4)CC3)c2)cc(C(=O)NCc2c(C)cc(C)[nH]c2=O)c1C [Compound 38, 5-(2-(4-(cyclopropylmethyl)piperazin-1-yl)pyridin-4-yl)-N-((4,6-dimethyl-2-oxo-1,2-dihydropyridin-3-yl)methyl)-3-(N-ethylcyclopentanecarboxamido)-2-methylbenzamide] |  |
| 0.24 | 220 |  |  | CCN(C(=O)C1CCCC1)c1cc(-c2ccc(OCCN3CCOCC3)cc2)cc(C(=O)NCc2c(C)cc(C)[nH]c2=O)c1C [Compound 40, N-((4,6-dimethyl-2-oxo-1,2-dihydropyridin-3-yl)methyl)-5-(N-ethylcyclopentanecarboxamido)-4-methyl-4′-(2-morpholinoethoxyl)-[1,1′-diphenyl]-3-carboxamide] |  |
|  |  | 179.84 | 234.50 | CCN(C(=O)C1CCCC1)c1cc(-c2ccc(OCCCN3CCOCC3)c(F)c2)cc(C(=O)NCc2c(C)cc(C)[nH]c2=O)c1C [Compound 42, N-((4,6-dimethyl-2-oxo-1,2-dihydropyridin-3-yl)methyl)-5-(N-ethylcyclopentanecarboxamido)-3′-fluoro-4-methyl-4′-(3-morpholinopropoxy)-[1,1′-diphenyl]-3-carboxamide] |  |
|  |  | 147.30 | 235.05 | CCN(C(=O)C1CCCC1)c1cc(-c2ccc(C(C)=O)s2)cc(C(=O)NCc2c(C)cc(C)[nH]c2=O)c1C [Compound 43, 5-(5-acetylthiophene-2-yl)-N-((4,6-dimethyl-2-oxo-1,2-dihydropyridin-3-yl)methyl)-3-(N-ethylcyclopentanecarboxamido)-2-methylbenzamide] |  |
